Experimental data reported in patent US20240307299A1, “SELF-EMULSIFYING DRUG DELIVERY (SEDDS) FOR OPHTHALMIC DRUG DELIVERY” (priority 2015, published 2024).
Like-named read-outs stand apart in the source and are kept apart here.

Tested on: New Zealand White female rabbits
Format: in vivo
Protocol: The ocular tolerability of the various pharmaceutical-grade excipients used in our formulations was evaluated in vivo using New Zealand White female rabbits. A total of ten test groups with three rabbits each were used to test the materials listed below in Table 16. Dosing in each group was done by instilling one drop of material at the lowest concentration into the left eye of the first rabbit. If not tolerated, dosing was stopped. If tolerated, one drop of the same concentration was instilled into the left eye of the second rabbit and then again for the third rabbit. If a concentration was tolerated by 3 rabbits, dosing continued in the same pattern with the next higher concentration, if applicable.
Sample compositions, specifically, the vehicle used to dilute the materials tested, are listed in the next table (Table 17).

Molecule: PEG (polyethylene glycol) 300 [PEG 300]
- Concentration at which the not tolerated finding was seen (rabbit, in vivo): 10%

Molecule: PEG 400
- Concentration at which the not tolerated finding was seen (rabbit, in vivo): 20%
- Maximum Tolerated Concentration (rabbit, in vivo): 10 % w/w
- Reason Not Tolerated: Ocular discomfort (score) (rabbit, in vivo): +3, 1 Ocular discomfort seen at

Molecule: polyoxyethylene sorbitan monooleate [PS80]
- Concentration at which the not tolerated finding was seen (rabbit, in vivo): 40%
- Maximum Tolerated Concentration (rabbit, in vivo): 30 % w/w

Molecule: CC(O)CO (centres unmarked) [Propylene Glycol]
- Concentration at which the not tolerated finding was seen (lowest concentration not tolerated): 10%
- Concentration not tolerated (topical ocular, rabbits): 10%
